Reference: the CheMixHub ionic liquid set
± gives the uncertainty stated by the source.

Test: xn = mol fraction of the nth substance listed

CC(=O)[O-].CN1CCCN2CCC[NH+]=C12 + O
101.3 kPa
Settings	viscosity [mPa·s]
278.2 K, x1 = 0.405	1800 ± 95
283.2 K, x1 = 0.103	33 ± 6.6
283.2 K, x1 = 0.206	204 ± 11
283.2 K, x1 = 0.494	1496 ± 72
283.2 K, x1 = 0.604	1825 ± 94
293.2 K, x1 = 0.405	378 ± 13
298.2 K, x1 = 0.301	144.9 ± 4.4
298.2 K, x1 = 0.494	339.1 ± 9.8
303.2 K, x1 = 0.301	99.8 ± 2.8
303.2 K, x1 = 0.604	259.2 ± 6.7
308.2 K, x1 = 0.206	32.5 ± 1.3
308.2 K, x1 = 0.301	70.9 ± 1.8
313.2 K, x1 = 0.301	51.8 ± 1.3
313.2 K, x1 = 0.494	109 ± 1.8
318.2 K, x1 = 0.301	39.02 ± 0.91
318.2 K, x1 = 0.494	79.4 ± 1.1
323.2 K, x1 = 0.604	66.33 ± 0.91
333.2 K, x1 = 0.206	10.12 ± 0.32
338.2 K, x1 = 0.494	28.19 ± 0.36
343.2 K, x1 = 0.103	2.76 ± 0.17
353.2 K, x1 = 0.301	8.98 ± 0.17
358.2 K, x1 = 0.103	1.97 ± 0.1
358.2 K, x1 = 0.206	4.58 ± 0.12
358.2 K, x1 = 0.604	14.29 ± 0.18
363.2 K, x1 = 0.604	12.16 ± 0.15
368.2 K, x1 = 0.103	1.62 ± 0.08
368.2 K, x1 = 0.604	10.46 ± 0.13
373.2 K, x1 = 0.103	1.5 ± 0.07
373.2 K, x1 = 0.301	5.14 ± 0.09
373.2 K, x1 = 0.604	9.11 ± 0.12

CCCOCCn1cc[n+](C)c1.O=S(=O)([N-]S(=O)(=O)C(F)(F)F)C(F)(F)F + O
101 kPa, x1 = 0.8306
Settings	viscosity [mPa·s]
283 K	78.3 ± 1.8
298.1 K	38.7 ± 0.9
